From patent US8962576B2, “Compositions and method for improving endothelial function and cardiovascular health” (Natreon, Inc., priority 2012, dated 2015)
Several values for one entry are separate records, joined by “and”; a condition that tells them apart may be missing. Equal values may be shown once.

Assays:
Type in all cases: in vivo, human
[1] = tested on: platelet aggregation; assay: Platelet aggregation with ADP, dual channel aggregometer, study (a)
Experimental: Evaluation of Platelet Aggregation.
The platelet aggregation was determined by the following procedure using Wheecon chronologue dual channel platelet aggregometer (Wheecon Instruments Pvt. Ltd., Chemai, Tamilnadu, India). The percentage decrease in platelet aggregation was recorded at baseline and 3 hours post treatment. Approximately 9 ml of blood sample was collected in a 10 ml plastic test tube containing 1 ml of 3.8% Sodium Citrate from the cubital vein of the subject at baseline and after 3 hours post treatment in all the groups. The test was performed immediately within a time period of one and half hours from collection. The samples were centrifuged at 800 rpm for 15 minutes to obtain a platelet-rich plasma. A portion of the same sample was centrifuged at 2500 rpm for 10 minutes so as to get a platelet-poor plasma sample. The aggregometer was switched about 30 minutes before the test to allow the heating block to warm up to 37° C. Then the test was performed in duplicate by taking 0.5 ml of platelet-rich plasma using 5 μl of adenosine di-phosphate (ADP) solution (2 μgm/ml) in cuvettes containing magnetic stir bars. The speed of stir bars were adjusted at 1200 rpm so as to facilitate the aggregation of the platelets. The platelet-poor plasma sample was kept as reference. The readings were recorded at baseline and after treatment with ADP. The percentage aggregation at baseline and the percentage inhibition of platelet aggregation on post treatment with all the four treatments was calculated.

[2] = tested on: Type 2 Diabetic Subjects; assay: Other cardiovascular pharmacodynamic parameters (AIx, SEVR, ABI, PWV, CO, SVR), study (c); settings: CAPROS 250 mg twice daily, Atorvastatin 10 mg daily, n = 20
Experimental: The augmentation index (AIx, defined as augmented pressure divided by pulse pressure and expressed as a percentage) is thus a composite measure of the magnitude of wave reflections and arterial stiffness, which affects timing of wave reflections. Because the augmentation index is influenced by changes in heart rate (HR), it is also accordingly corrected (AIx@75). The augmentation index was measured by using a validated, commercially available system (SphygmoCor; AtCor Medical, Sydney, Australia) that employs the principle of applanation tonometry and appropriate acquisition and analysis software for noninvasive recording and analysis of the arterial pulse. […] Waveforms of radial pressure were calibrated according to sphygmomanometric systolic and diastolic pressure measured in the brachial artery because there is practically negligible pressure pulse amplification between the brachial and the radial artery.
The subendocardial viability index, an indicator of myocardial workload and perfusion (O2 supply vs. demand) was calculated as the ratio of the integral of diastolic pressure and time to the integral of systolic pressure and time.
Brachial-ankle pulse wave velocity (baPWV) is also used to evaluate arterial stiffness. Pulse wave velocity is the speed at which the blood pressure pulse travels from the heart to the peripheral artery after blood rushes out during contraction. It is mainly used to evaluate stiffness of the artery wall. Pulse wave velocity increases with stiffness of the arteries. The PTT (Pulse Transit Time) of each segment is calculated from the waveform taken from each sensor. Pulse wave velocity is defined in Equation (1): […]
Brachial Ankle Pulse Wave Velocity (baPWV), Ankle Brachial Index (ABI) and Blood Pressure (BP) were measured using an automatic waveform analyzer (model BP-203 RPE; Colin Medical Technology, Komaki, Japan). Measurements were taken with patients lying in a supine position after 5 minutes of rest in that position. Occlusion and monitoring cuffs were placed snugly around both sites of the upper and lower extremities of patients. Pressure waveforms of the brachial and tibial arteries were then recorded simultaneously by an oscillometric method. Measurement of right and left baPWV was obtained for an average of 10 seconds. The average of left and right baPWV will be used for analysis.
Recording of cardiac output (CO) was performed using L&T Nivomon monitor (Larsen & Toubro Ltd., Mumbai, India). Noninvasive continuous cardiac output monitor with peripheral blood flow measurement option. This equipment is very useful and versatile. It calculates many cardiac parameters directly including cardiac output. It works on the features of impedance plethysmography principle and has tetrapolar configuration. The advantage is that this equipment directly calculates the cardiac output along with other parameters using the pulse wave.
After screening, all the eligible subjects were randomized to receive either one of the four treatments for a duration of 12 weeks, as follows.
The clinical measurements and pharmacodynamic tests were performed as described above in studies (a) or (b), unless otherwise stated.

[3] = tested on: Type 2 Diabetic Subjects; assay: Lipid profile, study (a), 12 weeks treatment; settings: Sensoril or Capros 250 mg twice daily, Atorvastatin 10 mg at night, n = 10
Experimental: Study (a) design. Patients of either sex, aged 18-75 years, fasting plasma glucose of ≧110 mg/dL, a glycosylated hemoglobin (HbA1c) between 7% and 10% and taking stable doses of anti-diabetic treatment for the past 8 weeks prior to the screening visit; and having endothelial dysfunction defined as ≦6% change in reflection index (RI) on post salbutamol challenge test were included in the study. Patients with severe uncontrolled hyperglycaemia, uncontrolled hypertension, cardiac arrhythmia, impaired hepatic or renal function, history of malignancy or stroke, smoking, chronic alcoholism, any other serious disease requiring active treatment and treatment with any other herbal supplements, were excluded from the study. Pregnant and lactating women were also excluded.
All the eligible subjects were randomized to receive either one of the four treatments for duration of 12 weeks. There were ten (10) subjects per group. […] Subjects were asked to revisit for follow up at 4, 8 and 12 weeks of therapy. At each visit they were evaluated for efficacy and safety. Pharmacodynamic evaluation for endothelial function was conducted at every visit. Blood samples were collected for evaluation of biomarkers before and at the end of treatment. Safety lab investigations were conducted before and at the end of the study and as and when required in case of any adverse drug reaction (ADR). Subjects were examiner and/or surveyed for the presence of ADR and the same was recorded in the case report form. Compliance was assessed by pill count method.
All the subjects had undergone complete physical examination, safety lab evaluations at baseline, i.e., prior to treatment, and at the end of the treatment. Samples were collected after an overnight fast of 12 hrs after the last dose of medication for determination of haemoglobin level, glycosylated hemoglobin (HbA1c), urea and creatinine levels, liver function, and lipid profile (total cholesterol, high density lipoprotein cholesterol (HDL-C), and low density lipoprotein cholesterol (LDL-C)). Plasma glucose, liver function test, blood urea, serum creatinine and HbA1c were measured using appropriate standard techniques.

Compound: CC(C)c1c(C(=O)Nc2ccccc2)c(-c2ccccc2)c(-c2ccc(F)cc2)n1CC[C@@H](O)C[C@@H](O)CC(=O)O [Atorvastatin]
- % Inhibition of Platelet Aggregation ([1]; 3 hours post treatment, ADP, n = 10): 7.11%
- platelet aggregation ([1]; Post treatment, 3 hours post treatment, ADP, n = 10): 62.00±12.81%
- platelet aggregation ([1]; Pre treatment (baseline), ADP, n = 10): 66.50±11.00%
- reduction of ADP induced platelet aggregation ([1]; earlier study, results in Table V): did not produce significant reduction
- Absolute change in ABI ([2]; 12 weeks): 0.08 ± 0.06
- Absolute change in AIx ([2]; 12 weeks): −12.14 ± 5.44%
- Absolute change in CO ([2]; 12 weeks): 0.84 ± 0.43 lt/min
- Absolute change in PWV ([2]; 12 weeks): −175.5 ± 110.82 cm/s
- Absolute change in SEVR ([2]; 12 weeks): 11.09 ± 6.51%
- Absolute change in SVR ([2]; 12 weeks): −182.3 ± 109.61 dyne · sec/cm^5
- ABI ([2]; Post TT, 12 weeks): 1.10 ± 0.04$
- AIx ([2]; Post TT, 12 weeks): 123.4 ± 13.4$ %
- CO ([2]; Post TT, 12 weeks): 5.15 ± 0.47$ lt/min
- PWV ([2]; Post TT, 12 weeks): 1346 ± 147.6$ cm/s
- SEVR ([2]; Post TT, 12 weeks): 146.5 ± 16.09$ %
- SVR (Systemic Vascular Resistance) ([2]; Post TT, 12 weeks): 1336.95 ± 251.3$ dyne · sec/cm^5
- ABI ([2]; Pre TT): 1.02 ± 0.07
- AIx ([2]; Pre TT): 135.5 ± 14.71%
- CO ([2]; Pre TT): 4.13 ± 0.65 lt/min
- PWV ([2]; Pre TT): 1522 ± 127.7 cm/s
- SEVR ([2]; Pre TT): 135.4 ± 19.11%
- SVR (Systemic Vascular Resistance) ([2]; Pre TT): 1519.25 ± 296.3 dyne · sec/cm^5
- HDL-C ([3]; Post treatment, 12 weeks): 48.2±6.01 mg/dL and 48.2 ± 6.01$ mg/dL
- LDL-C ([3]; Post treatment, 12 weeks): 87.6 ± 19.07 mg/dL
- Total Cholesterol ([3]; Post treatment, 12 weeks): 146 ± 24.52 mg/dL
- Triglycerides ([3]; Post treatment, 12 weeks): 102.8 ± 40.61 mg/dL
- HDL-C ([3]; Pre treatment): 42.77 ± 6.13 mg/dL
- LDL-C ([3]; Pre treatment): 133.2 ± 38.09 mg/dL
- Total Cholesterol ([3]; Pre treatment): 185.7 ± 36.38 mg/dL
- Triglycerides ([3]; Pre treatment): 169.1 ± 67.51 mg/dL
